Experimental data as given in patent US9877961B2, “Anticoagulant reversal agents” (PEROSPHERE INC., priority 2011, dated 2018).
Entries after “also recorded” stand apart in the source; their conditions may differ.

Experiments:
[1] = system: unfractionated heparin anticoagulation; assay: DAP reversal of unfractionated heparin anticoagulation in vivo, aPTT; parameters: species or system rat
Text: (§1) The activated partial thromboplastin time (aPTT) assay is an assay that measures how long it takes for the blood to clot. Blood samples are collected for direct measurement or in tubes with oxalate and citrate to arrest coagulation by calcium until the assay can be performed. In the assay, a phospholipid, an activator (silica, celite, kaolin, ellagic acid, etc.), and calcium are mixed into the plasma to induce coagulation. The assay measures the time until a thrombus (clot) forms.
A male albino rat, weighing 515 g, was administered 10 mg/kg of unfractionated heparin (5 mg UFH) by subcutaneous injection.
200 mg/kg of DAP (100 mg DAP) was administered as two intravenous bolus injections after UFH administration. Subsequently, the rat was administered a dose of 400 mg/kg of DAP (200 mg of DAP). aPTT was measured throughout the course of the entire treatment.

[2] = DLS association of DAP with rivaroxaban; type: binding
Protocol: Rivaroxaban (XARELTO®) alone, DAP alone, and DAP:rivaroxaban combinations at mass ratios of 1:1 and 10:1 were added into an aqueous solution and analyzed by dynamic light scattering (DLS) to assess association of the DAP and rivaroxaban. A similar experiment was conducted on apixaban (ELIQUIS®) alone, DAP alone, and DAP:apixaban combinations at mass ratios of 1:1, 10:1 and 100:1. Fondaparinux (ARIXTRA®) alone, DAP alone, and fondaparinux:DAP combinations at mass ratios of 1:1, 10:1 and 100:1 were similarly tested. LMWH (bemiparin; HIBOR®), alone, DAP alone, and LMWH:DAP combinations at mass ratios of 1:1, 10:1, and 100:1 were also tested. The concentration of LMWH tested was 0.1 mg/ml. Therefore, at 1:1, 0.1 mg/ml DAP was tested, at 10:1, 1 mg/ml was tested, and at 100:1, 10 mg/ml DAP was tested.

[3] = system: LMWH (bemiparin) anticoagulation; assay: DAP reversal of LMWH (bemiparin) anticoagulation in vivo, aPTT; parameters: species or system rat
Text: as §1
A male albino rat, weighing 470 g, was administered 10 mg of bemiparin (an overdose of LMWH) by subcutaneous injection. aPTT time was measured over the course of five hours. Four hours after LMWH administration, the rat received an intravenous dose of 200 mg/kg of DAP (100 mg DAP).

[4] = DLS association of DAP with argatroban; type: binding; details: concentrations up to 1:1000
apixaban anticoagulation = assay: DAP reversal of apixaban in human plasma ex vivo, Biophen anti-Factor Xa chromogenic assay; type: biochemical
Protocol: The anti-factor Xa assay directly measures anti-factor Xa activity. The methodology behind an anti-factor Xa assay is that patient plasma is added to a known amount of excess factor Xa and excess antithrombin. If a factor Xa inhibitor is present in the patient plasma, it will reduce the enzymatic activity of factor Xa. The amount of residual factor Xa is inversely proportional to the amount of anti-Xa agent in the plasma. The amount of residual factor Xa is detected by adding a chromogenic substrate that mimics the natural substrate of factor Xa, making residual factor Xa cleave it, releasing a colored compound that can be detected by a spectrophotometer. […] Results are given in anticoagulant concentration in units/mL of antifactor Xa, such that high values indicate high levels of anticoagulation and low values indicate low levels of anticoagulation.
218 μg/L or 459 μg/L of rivaroxaban was added to human plasma, with or without 1,250 μg/L or 6,250 μg/L of DAP, respectively. […] DAP effect on anticoagulation was measured by 510 k cleared Biophen anti-Factor Xa chromogenic assay. Rivaroxaban concentrations were determined by comparison with plasma calibration standards, while apixaban concentrations were inferred from stock solution dilutions as calibration standards are not yet available.

Water solubility of DAP = type: physicochemical
Protocol: In one embodiment, wherein the pharmaceutical composition comprises the DAP compound of formula V (or its stereoisomer of formula VII) and the composition is adapted for parenteral administration in an injection, the compound is dissolved in water with appropriate tonicity and molality modifiers (such as phosphate buffered saline). DAP is water-soluble at greater than 100 mg/ml. In the one embodiment, DAP is adapted as a sterile solution for IV administration. In one aspect, the molality of the pharmaceutical composition in which DAP is adapted for IV administration is adjusted to 290 mOsm/L with sodium chloride, and the pH is adjusted to 7.4 with sodium hydroxide. Preferably the pharmaceutical composition is administered as an intravenous bolus by slow push.

[5] = system: apixaban (ELIQUIS®) anticoagulation; assay: Rat tail transection bleeding assay, apixaban; type: in vivo; details: for blood loss (blood collected over 30 minutes): p<0.01 vs apixaban only
Protocol: Rat tail bleeding assay or rat tail transection assay is an assay that measures blood loss, e.g., blood loss after drug administration. In one embodiment, where the effect of the compound of the invention (e.g., DAP) is being tested, at the Tmax of the anticoagulant, DAP is administered intravenously. After 20 minutes, rat tails are transected approximately 1 mm from the tip, placed in room temperature saline, and blood is collected for 30 minutes and weighed.
Three rats each were administered 2 mg of rivaroxaban. One rat received a sham reversal containing no DAP, the second received 2.5 mg of DAP, and the third received 12.5 mg DAP. A fourth fat received sham anticoagulant and reversal doses (“sham”). 20 minutes after the reversal dose, tails were transected 1 mm from the tip, placed in room temperature saline, and blood loss was collected for 30 minutes and then weighed.
Same procedures were used with 1.25 mg apixaban (ELIQUIS®) alone or in combination with 5 or 12.5 mg DAP; with 15.5 mg dabigatran etexilate (PRADAXA®) alone or in combination with 5 or 12.5 mg DAP; and with 5 mg edoxaban (LIXIANA®) alone or in combination with 12.5 mg DAP.

[6] = system: rivaroxaban-induced anticoagulation; assay: DAP reversal of rivaroxaban in freshly drawn human blood ex vivo, aPTT; type: biochemical; details: 0.25 μg/ml rivaroxaban, 50 μg/ml DAP
Protocol: Human blood was drawn from a volunteer. Rivaroxaban at 0.25 μg/ml was added alone or in combination with 50 μg/ml DAP. Controls contained 50 μg/ml DAP or saline. aPTT was measured within 2 minutes of blood collection.

N=C(N)NCCC[C@H](N)C(=O)NCCCN1CCN(CCCNC(=O)[C@@H](N)CCCNC(=N)N)CC1 (stereo in doubt) [DAP, 2-Amino-5-guanidino-pentanoic acid (3-{4-[3-(2-amino-5-guanidino-pentanoylamino)-propyl]-piperazin-1-yl}-propyl)-amide]
aPTT after DAP ([1]; 200 mg DAP i.v., 10 minutes): 33 s
aPTT after DAP ([1]; first 100 mg DAP i.v., 20 minutes): 48 s
reversal of unfractionated heparin in vivo ([1]; rat, in vivo): reversed
aPTT after DAP ([1]; second 100 mg DAP i.v., 15 minutes): 47 s
aPTT risen after first DAP dose ([1]; within 1 hour after first 100 mg DAP): 120 s
aPTT risen after second DAP dose ([1]; within 1 hour after second 100 mg DAP): 96 s
binding by DLS [2]: directly bound
time until aPTT below baseline after DAP ([3]; 200 mg/kg (100 mg) DAP i.v. four hours after 10 mg bemiparin s.c.): ≤ 60 min
reversal of subcutaneous LMWH anticoagulation in vivo ([3]; rats, aPTT): reversed
binding by DLS [4]: did not bind
effective anticoagulant concentration after DAP (apixaban anticoagulation; 156 μg/L apixaban with 1,156 μg/L DAP, 313 μg/L apixaban with 3,125 μg/L DAP): below the minimum effective concentration
dose dependence of apixaban reversal (apixaban anticoagulation; human blood ex vivo): dose-dependent reversal
solubility (Water solubility of DAP): > 100 mg/mL
blood loss (blood collected over 30 minutes) ([5]; 1.25 mg apixaban and 5 mg DAP): reduced blood loss to sham dose levels
blood loss (blood collected over 30 minutes) ([5]; 1.25 mg apixaban and 12.5 mg DAP): reduced blood loss to sham dose levels
reversal of apixaban, blood loss vs anticoagulant only ([5]; rat tail transection, 30 minutes): reversed; also recorded: statistically significant reduction in blood loss
effect on rivaroxaban-induced anticoagulation, aPTT [6]: reversal of rivaroxaban-induced anticoagulation
